Laboratory results published in PubChem BioAssay (NCI).
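Briefly, cells in 96-well plates were exposed to five compound concentrations for 48 h, and endpoints were estimated by linear interpolation. The concentration for full growth arrest is given as TGI.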

Key:
Assay in all cases: growth of human tumour cells (NCI), 48 h
[1] = tested on: UO-31 renal
[2] = tested on: A498 renal
[3] = tested on: LOX IMVI melanoma
[4] = tested on: SR leukemia
[5] = tested on: UACC-62 melanoma
[6] = tested on: DU-145 prostate
[7] = tested on: HCT-116 colon
[8] = tested on: HOP-92 NSCLC
[9] = tested on: SF-295 CNS
[10] = tested on: SNB-19 CNS
[11] = tested on: PC-3 prostate
[12] = tested on: BT-549 breast

Compound | TGI [1] | TGI [2] | TGI [3] | TGI [4] | TGI [5] | TGI [6] | TGI [7] | TGI [8] | TGI [9] | TGI [10] | TGI [11] | TGI [12]
COC(=O)[C@H]1ON2O[C@@H](O[C@H]3CCCC[C@@H]3C(C)(C)c3ccccc3)C[C@@H]3CC[C@H]1[C@@]32C | > 100 µM | > 100 µM | > 100 µM | > 100 µM | > 100 µM | > 100 µM | > 100 µM | > 100 µM | > 100 µM |  |  | 
COc1cc(/C=C/C(=O)O)ccc1O | > 100 µM |  | > 100 µM | > 100 µM |  | > 100 µM | > 100 µM | > 100 µM | > 100 µM | > 100 µM | > 100 µM | 
Nc1ccccc1Sc1ccc(Cl)cc1 | 51 µM | > 100 µM | > 100 µM | 57.8 µM | > 100 µM |  | > 100 µM | 41.1 µM | > 100 µM |  |  | 
COC(=O)c1cc(C)ccc1CC(Cc1ccccc1C)C(=O)OC (stereo not given) | > 100 µM | > 100 µM | 28.1 µM |  | > 100 µM | > 100 µM | > 100 µM | 79.7 µM | > 100 µM | > 100 µM | > 100 µM | > 100 µM
CC1CSc2nc3[nH]c(=S)[nH]c3c(=O)n2C1 (stereo not given) | > 100 µM | > 100 µM | > 100 µM |  | > 100 µM | > 100 µM | > 100 µM |  | > 100 µM | > 100 µM |  | > 100 µM
CC1(C)OC2CN(C(=O)OCc3ccccc3)C(CO)C2O1 (stereo not given) | > 100 µM | > 100 µM | > 100 µM |  | > 100 µM | > 100 µM | > 100 µM | > 100 µM | > 100 µM | > 100 µM | > 100 µM | > 100 µM
CC1(C)OC[C@@]2([C@@H]3CC[C@@H](C3)C2(C)C)N1O |  | > 100 µM | > 100 µM |  | > 100 µM | > 100 µM | > 100 µM | > 100 µM | > 100 µM | > 100 µM | > 100 µM | > 100 µM
OCC1CCCCN1Cc1nc2ccc(Cl)cc2[nH]1 (stereo not given) | > 100 µM | > 100 µM |  | > 100 µM | > 100 µM | > 100 µM | > 100 µM | > 100 µM | > 100 µM | > 100 µM | > 100 µM | > 100 µM
CCOC(=O)c1c(NC(=O)c2ccccc2)sc2c1CCC2 | > 100 µM | > 100 µM |  | > 100 µM | > 100 µM | > 100 µM | > 100 µM |  | > 100 µM | > 100 µM | > 100 µM | > 100 µM
O/N=C1\CC2(N3CCOCC3)CCC1(Cc1ccccc1)CC2 | > 100 µM | 88.9 µM | > 100 µM | > 100 µM |  | > 100 µM | 90.6 µM | 89.2 µM | 61.2 µM | 63.5 µM | > 100 µM | 
CC(=O)/C=C/c1c[nH]c(=O)[nH]c1=O | 397 µM | 566 µM | 354 µM |  | 574 µM |  | 388 µM | 102 µM | 751 µM | 903 µM |  | 
C#CCSc1cnc2ccccc2c1Sc1c[nH]c2ccccc2c1=O | 5.99 µM |  | 38.9 µM | > 100 µM | 54.1 µM | > 100 µM | 32.5 µM | 61.2 µM | > 100 µM | > 100 µM | > 100 µM | > 100 µM
COc1ccc(/C=N/n2c(Cc3ccc(Cl)cc3)n[nH]c2=O)cc1 | > 100 µM | > 100 µM |  | > 100 µM | > 100 µM | > 100 µM | > 100 µM | 44.7 µM | 49.9 µM | 35.6 µM | > 100 µM | > 100 µM
CC1=NN(C(=O)CC(=O)Nc2cccc(Cl)c2)C(=O)C1N=Nc1ccc(S(=O)(=O)c2ccc(N=NC3C(=O)N(C(=O)CC(=O)Nc4cccc(Cl)c4)N=C3C)cc2)cc1 (stereo not given) | > 100 µM |  | > 100 µM | > 100 µM | > 100 µM | > 100 µM | > 100 µM | > 100 µM | > 100 µM | > 100 µM | > 100 µM | > 100 µM
C(/C=N/NC1=NCCN1)=N\NC1=NCCN1 | > 100 µM | > 100 µM | > 100 µM | > 100 µM | > 100 µM |  | > 100 µM | > 100 µM | > 100 µM | > 100 µM | > 100 µM | > 100 µM
c1ccc(-c2cc(-c3cc(-c4ccccc4)n[nH]3)[nH]n2)cc1 | > 100 µM | > 100 µM |  | > 100 µM | > 100 µM | > 100 µM | > 100 µM |  | > 100 µM | > 100 µM | > 100 µM | > 100 µM
CCOC(=O)CC[C@@H](NC(=O)c1ccc(NCc2ccc3nc(OC)c(OC)nc3c2)cc1)C(=O)OCC | > 65.4 µM |  | > 100 µM | > 87.4 µM | 32 µM | > 100 µM | > 100 µM | 36.2 µM | > 100 µM | > 100 µM | > 100 µM | > 100 µM
COc1ccc(S(=O)Cc2cc(OC)ccc2OC)cc1 (stereo not given) | > 100 µM | > 100 µM | > 100 µM |  | > 100 µM | > 100 µM | > 100 µM | > 100 µM | > 100 µM | > 100 µM | > 100 µM | > 100 µM
CSc1nc(-c2cc3c(c(SC)n2)CCC3)cc2c1CCC2 | > 100 µM | > 100 µM |  |  | > 100 µM | > 100 µM | > 100 µM |  | > 100 µM | > 100 µM | > 100 µM | > 100 µM
C/C(=C1/N=C(c2cc([N+](=O)[O-])ccc2Cl)N(C2=CC=C(Cl)CC2)C1=O)c1cc2ccccc2oc1=O | > 100 µM | > 100 µM | > 100 µM | > 100 µM | > 100 µM |  | > 100 µM |  | > 100 µM | > 100 µM |  | 
CNC(=O)CNC(=O)CCC(=O)N(C)C | > 100 µM | > 100 µM | > 100 µM |  | > 100 µM | > 100 µM | > 100 µM | > 100 µM | > 100 µM | > 100 µM | > 100 µM | > 100 µM
